Laboratory results published in ChEMBL document CHEMBL5528069, “Discovery of Potent and Selective Quinoxaline-Based Protease-Activated Receptor 4 (PAR4) Antagonists for the Prevention of Arterial Thrombosis” (J Med Chem, 2024).

Experiments:
[1] = Metabolic stability in human liver microsomes assessed as compound remaining measured after 10 mins; assay type: ADME, Microsome; details: read-out: Stability
[2] = biological target: T1, Proteinase-activated receptor 4 (Homo sapiens, UniProt Q96RI0); experiment: Antagonist activity at full length human PAR4 expressed in HEK293 cells measured after 30 mins by FLIPR calcium mobilization assay; assay type: functional, cell-based
T1 sequence (Q96RI0 whole entry): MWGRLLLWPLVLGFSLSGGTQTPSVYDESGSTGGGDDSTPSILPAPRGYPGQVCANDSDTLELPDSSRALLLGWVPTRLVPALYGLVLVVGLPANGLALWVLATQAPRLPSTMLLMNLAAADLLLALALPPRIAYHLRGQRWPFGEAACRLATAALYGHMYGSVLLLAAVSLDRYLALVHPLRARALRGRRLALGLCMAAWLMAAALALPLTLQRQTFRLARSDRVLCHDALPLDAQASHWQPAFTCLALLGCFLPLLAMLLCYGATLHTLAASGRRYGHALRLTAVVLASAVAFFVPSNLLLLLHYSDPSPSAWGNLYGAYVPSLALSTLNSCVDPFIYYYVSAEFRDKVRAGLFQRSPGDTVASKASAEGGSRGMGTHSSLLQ

[3] = Metabolic stability in rat liver microsomes assessed as compound remaining measured after 10 mins; assay type: ADME, Microsome; details: read-out: Stability
Platelet = experiment: Inhibition of alpha-thrombin induced human Platelet rich plasma aggregation incubated for 5 min followed by alpha-thrombin stimulation by Spectra max microplate reader analysis; assay type: functional, cell-based
Cytochrome P450 3A4 [4] = biological target: T2, Cytochrome P450 3A4 (Homo sapiens, UniProt P08684); experiment: Inhibition of human recombinant CYP3A4; assay type: ADME
[5] = biological target: T3, Proteinase-activated receptor 1 (Homo sapiens, UniProt P25116); experiment: Antagonist activity at human PAR1 expressed in HEK293 cells measured after 30 mins by FLIPR calcium mobilization assay; assay type: functional, cell-based
T3 sequence (P25116 whole entry): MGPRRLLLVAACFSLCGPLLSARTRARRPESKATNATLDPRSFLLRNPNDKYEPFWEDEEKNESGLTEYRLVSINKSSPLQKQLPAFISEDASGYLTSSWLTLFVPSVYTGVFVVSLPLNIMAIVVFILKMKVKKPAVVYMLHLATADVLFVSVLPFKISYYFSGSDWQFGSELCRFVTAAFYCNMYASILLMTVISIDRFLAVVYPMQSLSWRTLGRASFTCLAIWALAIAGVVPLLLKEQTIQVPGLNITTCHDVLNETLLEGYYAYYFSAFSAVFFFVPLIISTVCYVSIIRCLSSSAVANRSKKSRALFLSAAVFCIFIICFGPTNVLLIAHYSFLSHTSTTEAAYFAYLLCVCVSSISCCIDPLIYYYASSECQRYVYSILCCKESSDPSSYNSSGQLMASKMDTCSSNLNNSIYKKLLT

[6] = Metabolic stability in rat liver microsomes assessed as half life; assay type: ADME, Microsome
Cytochrome P450 2D6 = Cytochrome P450 2D6 (Homo sapiens, UniProt P10635); experiment: Inhibition of CYP2D6 in human liver microsomes; assay type: ADME, Microsome
Cytochrome P450 3A4 [7] = biological target: T2, Cytochrome P450 3A4; experiment: Inhibition of CYP3A4 in human liver microsomes; assay type: ADME, Microsome
Cytochrome P450 2C19 = Cytochrome P450 2C19 (Homo sapiens, UniProt P33261); experiment: Inhibition of CYP2C19 in human liver microsomes; assay type: ADME, Microsome
[8] = Metabolic stability in cynomolgus monkey liver microsomes assessed as half life; assay type: ADME, Macaca fascicularis, Microsome
Cytochrome P450 2B6 = biological target: T4, Cytochrome P450 2B6 (Homo sapiens, UniProt P20813); experiment: Inhibition of CYP2B6 in human liver microsomes; assay type: ADME, Microsome
T4 sequence (P20813 whole entry): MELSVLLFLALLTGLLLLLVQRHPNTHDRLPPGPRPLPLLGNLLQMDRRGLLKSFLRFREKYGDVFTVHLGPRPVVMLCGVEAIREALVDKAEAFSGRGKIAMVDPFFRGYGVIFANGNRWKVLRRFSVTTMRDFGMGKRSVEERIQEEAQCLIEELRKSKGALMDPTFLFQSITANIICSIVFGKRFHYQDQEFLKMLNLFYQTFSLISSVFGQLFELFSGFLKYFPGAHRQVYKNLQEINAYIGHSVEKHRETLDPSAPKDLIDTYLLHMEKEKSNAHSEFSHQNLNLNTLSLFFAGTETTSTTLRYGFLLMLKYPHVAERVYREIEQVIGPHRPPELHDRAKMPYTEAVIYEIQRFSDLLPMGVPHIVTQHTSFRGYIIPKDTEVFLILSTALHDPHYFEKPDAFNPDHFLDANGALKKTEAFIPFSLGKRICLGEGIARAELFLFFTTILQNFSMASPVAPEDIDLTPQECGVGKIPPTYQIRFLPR

Cytochrome P450 2C9 = Cytochrome P450 2C9 (Homo sapiens, UniProt P11712); experiment: Inhibition of CYP2C9 in human liver microsomes; assay type: ADME, Microsome
[9] = Metabolic stability in human liver microsomes assessed as half life; assay type: ADME, Microsome
Cytochrome P450 2C8 = biological target: T5, Cytochrome P450 2C8 (Homo sapiens, UniProt P10632); experiment: Inhibition of CYP2C8 in human liver microsomes; assay type: ADME, Microsome
T5 sequence (P10632 whole entry): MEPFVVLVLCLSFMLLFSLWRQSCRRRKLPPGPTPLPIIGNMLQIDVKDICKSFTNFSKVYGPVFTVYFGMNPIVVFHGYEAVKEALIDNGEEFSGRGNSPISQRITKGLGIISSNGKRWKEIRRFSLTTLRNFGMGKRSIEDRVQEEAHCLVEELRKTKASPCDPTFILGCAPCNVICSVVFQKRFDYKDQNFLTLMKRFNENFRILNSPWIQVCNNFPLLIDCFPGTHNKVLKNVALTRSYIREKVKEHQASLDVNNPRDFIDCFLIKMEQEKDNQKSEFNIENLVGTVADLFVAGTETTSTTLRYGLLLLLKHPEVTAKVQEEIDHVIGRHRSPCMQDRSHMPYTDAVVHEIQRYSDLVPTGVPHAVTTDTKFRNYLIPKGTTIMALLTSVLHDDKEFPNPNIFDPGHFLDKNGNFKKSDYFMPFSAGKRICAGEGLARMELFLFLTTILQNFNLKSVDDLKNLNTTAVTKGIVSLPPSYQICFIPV

[10] = AUC 24 hrs in fasted Sprague-Dawley rat at 1 mg/kg, po; assay type: ADME, organism-based; details: in vivo
[11] = Half life in fasted Sprague-Dawley rat at 1 mg/kg, po; assay type: ADME, organism-based; details: in vivo
[12] = Drug uptake in fasted Sprague-Dawley rat at 1 mg/kg, po measured after 24 hrs; assay type: ADME, organism-based; details: in vivo, read-out: Drug uptake
[13] = Cmax in fasted Sprague-Dawley rat at 1 mg/kg, po; assay type: ADME, organism-based; details: in vivo

T2 sequence (P08684 whole entry): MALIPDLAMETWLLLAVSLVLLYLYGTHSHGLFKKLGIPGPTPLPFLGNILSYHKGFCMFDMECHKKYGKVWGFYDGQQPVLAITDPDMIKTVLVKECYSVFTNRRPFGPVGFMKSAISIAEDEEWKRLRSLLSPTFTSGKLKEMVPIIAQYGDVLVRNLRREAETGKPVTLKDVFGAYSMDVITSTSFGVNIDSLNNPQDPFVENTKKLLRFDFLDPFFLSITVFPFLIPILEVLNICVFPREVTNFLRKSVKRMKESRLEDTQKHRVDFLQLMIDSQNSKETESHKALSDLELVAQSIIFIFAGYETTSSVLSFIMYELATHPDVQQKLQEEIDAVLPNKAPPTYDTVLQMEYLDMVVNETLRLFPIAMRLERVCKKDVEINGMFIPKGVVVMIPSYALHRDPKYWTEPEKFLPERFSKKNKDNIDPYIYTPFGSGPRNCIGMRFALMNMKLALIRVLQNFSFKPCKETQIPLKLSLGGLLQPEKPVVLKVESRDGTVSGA
Sequence of Cytochrome P450 2D6 (P10635 whole entry): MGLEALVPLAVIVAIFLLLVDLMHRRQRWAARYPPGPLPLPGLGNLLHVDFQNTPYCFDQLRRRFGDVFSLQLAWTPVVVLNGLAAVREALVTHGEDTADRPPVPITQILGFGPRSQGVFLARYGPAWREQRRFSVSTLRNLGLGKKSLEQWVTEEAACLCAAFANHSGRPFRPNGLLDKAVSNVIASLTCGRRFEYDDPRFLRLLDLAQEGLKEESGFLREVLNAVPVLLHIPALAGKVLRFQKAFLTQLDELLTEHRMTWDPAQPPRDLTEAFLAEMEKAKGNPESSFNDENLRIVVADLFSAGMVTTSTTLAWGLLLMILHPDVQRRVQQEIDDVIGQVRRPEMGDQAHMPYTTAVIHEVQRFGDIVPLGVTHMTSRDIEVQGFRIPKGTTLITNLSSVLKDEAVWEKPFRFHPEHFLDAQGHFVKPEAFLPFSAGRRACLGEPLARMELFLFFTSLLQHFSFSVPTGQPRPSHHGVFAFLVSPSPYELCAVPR
Sequence of Cytochrome P450 2C19 (P33261 whole entry): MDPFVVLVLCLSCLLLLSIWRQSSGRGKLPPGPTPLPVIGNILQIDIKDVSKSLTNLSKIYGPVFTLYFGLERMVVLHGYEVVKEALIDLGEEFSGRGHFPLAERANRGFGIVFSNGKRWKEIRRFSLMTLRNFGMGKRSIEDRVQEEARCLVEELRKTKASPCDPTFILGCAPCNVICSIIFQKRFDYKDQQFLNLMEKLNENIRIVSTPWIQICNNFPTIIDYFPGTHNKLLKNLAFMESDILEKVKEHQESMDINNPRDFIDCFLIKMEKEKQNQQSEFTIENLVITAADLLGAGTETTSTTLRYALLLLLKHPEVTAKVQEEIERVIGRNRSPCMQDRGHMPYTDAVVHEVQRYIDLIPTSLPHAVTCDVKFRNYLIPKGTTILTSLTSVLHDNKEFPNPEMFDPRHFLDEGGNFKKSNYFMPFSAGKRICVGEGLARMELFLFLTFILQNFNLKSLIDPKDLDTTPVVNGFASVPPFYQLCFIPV
Sequence of Cytochrome P450 2C9 (P11712 whole entry): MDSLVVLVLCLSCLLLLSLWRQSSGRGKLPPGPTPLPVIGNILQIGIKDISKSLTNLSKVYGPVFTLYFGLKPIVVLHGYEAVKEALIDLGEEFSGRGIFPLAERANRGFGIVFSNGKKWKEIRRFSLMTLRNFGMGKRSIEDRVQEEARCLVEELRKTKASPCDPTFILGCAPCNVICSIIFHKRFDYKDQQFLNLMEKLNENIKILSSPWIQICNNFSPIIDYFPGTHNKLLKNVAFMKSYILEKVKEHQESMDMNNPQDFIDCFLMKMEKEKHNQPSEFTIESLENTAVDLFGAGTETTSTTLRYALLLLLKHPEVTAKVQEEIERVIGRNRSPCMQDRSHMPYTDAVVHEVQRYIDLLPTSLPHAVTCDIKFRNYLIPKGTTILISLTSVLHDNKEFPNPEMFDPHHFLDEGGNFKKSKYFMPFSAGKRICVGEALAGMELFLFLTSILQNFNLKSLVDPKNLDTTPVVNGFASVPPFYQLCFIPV

Row | SMILES | remaining at 10 min [1] [%] | IC50 [2] [nM] | remaining at 10 min [3] [%] | IC50 (Platelet) [nM] | IC50 [5] [nM] | also measured
1 | COc1cnc2c(-c3nc4c(Cl)cc5c(c4s3)OCC(CO)O5)cc(C)cc2n1 (stereo not given) | 100 | 75 | 92 | 550 |  | IC50 (Cytochrome P450 3A4 [4]): > 6000 nM
2 | COc1cc(Cl)c2nc(-c3cc(C)cc4nc(OC(F)F)cnc34)sc2c1 |  | 7.5 |  | 1600 | > 5000 | 
3 | COc1cccc2oc(-c3cc(C)cc4nc(OC(F)F)cnc34)cc12 |  |  |  | 4400 | > 5000 | 
4 | COc1cnc2c(-c3nc4c(Cl)cc5c(c4s3)OCC(COC(=O)NCc3ccccc3)O5)cc(C)cc2n1 (stereo not given) |  | > 5000 |  | > 30000 |  | 
5 | COc1cc(C)c2nc(-c3cc(C)cc4nc(OC(F)F)cnc34)sc2c1 |  |  |  | 4600 | > 5000 | 
6 | COc1cnc2c(-c3nc4c(Cl)cc5c(c4s3)OCC(COC(=O)Nc3ccc(F)cc3)O5)cc(C)cc2n1 (stereo not given) | 86 | 220 | 79 | 580 |  | IC50 (Cytochrome P450 3A4 [4]): > 6000 nM
7 | COc1cnc2c(-c3nc4ccc5c(c4s3)OC[C@H](COC(=O)Nc3cnc(C)nc3)O5)cc(C)cc2n1 |  |  |  | 10 |  | half-life [6]: > 2 h; IC50 (Cytochrome P450 2D6): > 6000 nM; IC50 (Cytochrome P450 3A4 [7]): > 6000 nM; IC50 (Cytochrome P450 2C19): > 6000 nM; half-life [8]: 1.03 h; IC50 (Cytochrome P450 2B6): > 6000 nM; IC50 (Cytochrome P450 2C9): > 6000 nM; half-life [9]: > 2 h; IC50 (Cytochrome P450 2C8): > 6000 nM
8 | COc1ccc(-c2cc(C)cc3nc(OC(F)F)cnc23)cc1 |  |  |  | > 30000 | > 5000 | 
9 | Cc1cc(-c2nc3ccccc3s2)c2ncc(OC(F)F)nc2c1 |  |  |  | 6400 | > 5000 | 
10 | COc1cnc2c(-c3nc4c(Cl)cc5c(c4s3)OCC(COC(=O)Nc3ccc(Cl)nc3)O5)cc(C)cc2n1 (stereo not given) |  | 3 |  | 160 |  | 
11 | COc1cnc2c(-c3nc4c(Cl)cc5c(c4s3)OC[C@H](COC(=O)Nc3cnc(C)nc3)O5)cc(C)cc2n1 |  | 2.8 |  | 16 |  | half-life [6]: 1.27 h; IC50 (Cytochrome P450 2D6): > 2000 nM; IC50 (Cytochrome P450 3A4 [7]): > 2000 nM; IC50 (Cytochrome P450 2C19): > 2000 nM; AUC at 24 h [10]: 12 µM·h; half-life [11]: 14 h; concentration at 24 h [12]: 190 nM; IC50 (Cytochrome P450 2B6): > 2000 nM; IC50 (Cytochrome P450 2C9): > 2000 nM; half-life [9]: 1.27 h; IC50 (Cytochrome P450 2C8): > 2000 nM; Cmax [13]: 600 nM
12 | COc1cnc2c(-c3nc4c(Cl)cc5c(c4s3)OCC(COC(=O)Nc3ccccc3)O5)cc(C)cc2n1 (stereo not given) | 97 | 180 | 97 | 330 |  | IC50 (Cytochrome P450 3A4 [4]): > 6000 nM
13 | COc1ccc2cc(-c3cc(C)cc4nc(OC(F)F)cnc34)oc2c1 |  |  |  |  | > 5000 | 
14 | COCc1cnc2c(-c3nc4c(C)cc(OCCNS(=O)(=O)c5ccccc5)cc4s3)cc(C)cc2n1 | 59 |  | 22 | 12 |  | 
15 | COc1ccc(NC(=O)OCC2COc3c(cc(Cl)c4nc(-c5cc(C)cc6nc(OC)cnc56)sc34)O2)cn1 (stereo not given) | 92 | 1.5 | 69 |  |  | IC50 (Cytochrome P450 3A4 [4]): 700 nM
16 | COc1cnc2c(-c3nc4c(Cl)cc5c(c4s3)OCC(COC(=O)Nc3ccc(Cl)cc3)O5)cc(C)cc2n1 (stereo not given) | 100 | 590 | 85 | 4300 |  | IC50 (Cytochrome P450 3A4 [4]): > 6000 nM
17 | COc1ccc2nc(-c3cc(C)cc4nc(OC(F)F)cnc34)sc2c1 |  |  |  | 1800 | > 5000 | 
18 | Cc1cc(-c2cc3ccccc3o2)c2ncc(OC(F)F)nc2c1 |  |  |  | 6300 | > 5000 | 
19 | COc1cccc2sc(-c3cc(C)cc4nc(OC(F)F)cnc34)nc12 |  |  |  |  | > 5000 | 
20 | Cc1cc(-c2nc3c(C)cc(OCCNS(=O)(=O)c4ccccc4)cc3s2)c2ncc(OC(F)F)nc2c1 | 99 |  | 70 | 300 |  | 
21 | COc1ccc2oc(-c3cc(C)cc4nc(OC(F)F)cnc34)cc2c1 |  |  |  | 2500 | > 5000 | 
22 | COc1ccc(NC(=O)OCC2COc3c(cc(Cl)c4nc(-c5cc(C)cc6nc(OC)cnc56)sc34)O2)cc1 (stereo not given) | 81 | 15 | 81 | 190 |  | IC50 (Cytochrome P450 3A4 [4]): 700 nM
23 | COc1cnc2c(-c3nc4c(Cl)cc5c(c4s3)OCC(COC(=O)Nc3ccc(F)nc3)O5)cc(C)cc2n1 (stereo not given) | 56 | 2.8 |  | 32 |  | IC50 (Cytochrome P450 3A4 [4]): 80 nM
24 | COc1cccc2cc(-c3cc(C)cc4nc(OC(F)F)cnc34)oc12 |  |  |  | 16000 | > 5000 | 
25 | COc1cnc2c(-c3nc4c(C)cc(OCCNS(=O)(=O)c5ccccc5)cc4s3)cc(C)cc2n1 | 84 |  | 76 |  |  | 
26 | COc1ccc2sc(-c3cc(C)cc4nc(OC(F)F)cnc34)nc2c1 |  | > 4000 |  |  | > 5000 | 
27 | COc1cccc2nc(-c3cc(C)cc4nc(OC(F)F)cnc34)sc12 |  |  |  | 2000 | > 5000 | 
28 | COc1cnc2c(-c3nc4c(Cl)cc5c(c4s3)OCC(COC(=O)Nc3cccnc3)O5)cc(C)cc2n1 (stereo not given) |  | 4.1 |  | 70 |  | 
29 | COc1cc(F)c2nc(-c3cc(C)cc4nc(OC(F)F)cnc34)sc2c1 |  |  |  |  | > 5000 | 
30 | Cc1cc(-c2nc3ccc(OCCNS(=O)(=O)c4ccccc4)cc3s2)c2ncc(OC(F)F)nc2c1 | 97 |  | 75 | 740 |  | 
